Consider six molecules from ChEMBL document CHEMBL1201862, “PubChem BioAssay data set” (2004).

Each structure is given as a SMILES string. Calls of active or inactive are those of the source.

Test [1] addresses Casein kinase I isoform delta (Homo sapiens, UniProt P48730). It counts as functional.
Test [2] deals with Serine/threonine-protein kinase pim-1 (Homo sapiens, UniProt P11309). It counts as functional.
The subject of test [3] is HEK293. Nature of the test: cells. The conditions noted are these: Homo sapiens.
In test [4] the test system is HEK293. Description: cells. The note with it: Homo sapiens. This is another data set of the same source.
In another test the test system is Vero. Nature of the test: cells. The class given is functional. The conditions noted are these: Chlorocebus sabaeus.
Test [5] addresses Protein disulfide-isomerase (Homo sapiens, UniProt P07237). Description: inhibition of PDI-driven insulin aggregation – biochemical, turbidity, absorbance, cherry-picked samples, dose response (AID 602350). The class given is functional.
The target in test [6] is DNA dC->dU-editing enzyme APOBEC-3G (Homo sapiens, UniProt Q9HC16). Description: inhibition of APOBEC3G ssDNA deamination – biochemical, fluorescence, single-stranded DNA substrate, SAR follow-up (AID 602136). The class given is functional. The note with it: read-out: IC50_Mean.
The target of test [7] is DNA dC->dU-editing enzyme APOBEC-3A (Homo sapiens, UniProt P31941). Description: SAR analysis of small molecule inhibitors of APOBEC3A DNA Deaminase via a fluorescence-based single-stranded DNA deaminase assay. The class given is functional. The conditions noted are these: read-out: IC50_Mean.
Sequence of DNA dC->dU-editing enzyme APOBEC-3A (P31941 whole entry): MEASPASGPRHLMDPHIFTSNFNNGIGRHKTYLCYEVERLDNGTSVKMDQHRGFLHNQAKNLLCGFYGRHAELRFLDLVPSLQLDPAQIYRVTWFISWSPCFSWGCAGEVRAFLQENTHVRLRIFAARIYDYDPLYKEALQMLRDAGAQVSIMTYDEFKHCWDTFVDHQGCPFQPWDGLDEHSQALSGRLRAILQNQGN
Test [8] addresses Cyclin-dependent kinase 9 (Homo sapiens, UniProt P50750). It counts as functional.
Test [9] addresses Dual specificity tyrosine-phosphorylation-regulated kinase 1A (Homo sapiens, UniProt Q13627). The class given is functional.
Test [10] deals with Cyclin-dependent kinase 8 (Homo sapiens, UniProt P49336). Nature of the test: Navigating the Kinome. Panel member name: CDK8. The class given is functional.
For test [11], the target named is Mitogen-activated protein kinase 14 (Homo sapiens, UniProt Q16539). It counts as functional.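 Further: part of a kinome-wide panel, MAPK14 entry.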
In test [12] the target is Platelet-derived growth factor receptor beta (Homo sapiens, UniProt P09619). The class given is functional.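 Further: value comes from a kinome panel, with PDGFRB tested as one panel member.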
Sequence of Platelet-derived growth factor receptor beta (P09619 whole entry): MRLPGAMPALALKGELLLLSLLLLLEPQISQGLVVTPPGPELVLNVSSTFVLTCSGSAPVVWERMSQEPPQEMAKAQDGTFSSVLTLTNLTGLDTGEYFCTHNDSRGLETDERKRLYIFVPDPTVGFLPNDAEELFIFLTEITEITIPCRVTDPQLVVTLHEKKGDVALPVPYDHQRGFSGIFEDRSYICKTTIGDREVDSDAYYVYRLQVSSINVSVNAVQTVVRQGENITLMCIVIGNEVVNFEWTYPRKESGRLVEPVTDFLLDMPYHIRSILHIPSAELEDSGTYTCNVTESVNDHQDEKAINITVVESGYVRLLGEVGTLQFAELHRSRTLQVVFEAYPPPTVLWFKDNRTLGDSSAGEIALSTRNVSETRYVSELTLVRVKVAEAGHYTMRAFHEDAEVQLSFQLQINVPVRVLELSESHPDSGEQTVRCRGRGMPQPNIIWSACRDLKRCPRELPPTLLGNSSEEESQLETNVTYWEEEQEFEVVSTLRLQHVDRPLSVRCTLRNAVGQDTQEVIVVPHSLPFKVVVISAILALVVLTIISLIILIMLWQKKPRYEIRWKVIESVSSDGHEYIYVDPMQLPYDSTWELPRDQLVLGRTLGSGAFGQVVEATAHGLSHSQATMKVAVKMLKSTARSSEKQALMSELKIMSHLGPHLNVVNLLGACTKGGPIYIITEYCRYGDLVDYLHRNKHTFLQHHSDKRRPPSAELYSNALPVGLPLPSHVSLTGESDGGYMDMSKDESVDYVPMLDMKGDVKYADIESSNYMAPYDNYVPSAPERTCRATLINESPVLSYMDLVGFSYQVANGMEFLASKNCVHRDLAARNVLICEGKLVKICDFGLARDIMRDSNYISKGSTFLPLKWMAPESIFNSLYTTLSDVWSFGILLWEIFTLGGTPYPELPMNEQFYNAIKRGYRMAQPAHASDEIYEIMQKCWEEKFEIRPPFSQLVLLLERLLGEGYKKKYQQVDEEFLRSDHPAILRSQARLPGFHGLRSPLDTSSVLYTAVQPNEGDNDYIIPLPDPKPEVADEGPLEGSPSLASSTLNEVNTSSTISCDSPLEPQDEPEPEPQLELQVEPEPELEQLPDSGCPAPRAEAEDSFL
Test [13] addresses Cyclin-dependent kinase 19 (Homo sapiens, UniProt Q9BWU1). Description: Navigating the Kinome. Panel member name: CDC2L6. It counts as functional.
In test [14] the target is Vascular endothelial growth factor receptor 2 (Homo sapiens, UniProt P35968). It counts as functional.
Sequence of Vascular endothelial growth factor receptor 2 (P35968 whole entry): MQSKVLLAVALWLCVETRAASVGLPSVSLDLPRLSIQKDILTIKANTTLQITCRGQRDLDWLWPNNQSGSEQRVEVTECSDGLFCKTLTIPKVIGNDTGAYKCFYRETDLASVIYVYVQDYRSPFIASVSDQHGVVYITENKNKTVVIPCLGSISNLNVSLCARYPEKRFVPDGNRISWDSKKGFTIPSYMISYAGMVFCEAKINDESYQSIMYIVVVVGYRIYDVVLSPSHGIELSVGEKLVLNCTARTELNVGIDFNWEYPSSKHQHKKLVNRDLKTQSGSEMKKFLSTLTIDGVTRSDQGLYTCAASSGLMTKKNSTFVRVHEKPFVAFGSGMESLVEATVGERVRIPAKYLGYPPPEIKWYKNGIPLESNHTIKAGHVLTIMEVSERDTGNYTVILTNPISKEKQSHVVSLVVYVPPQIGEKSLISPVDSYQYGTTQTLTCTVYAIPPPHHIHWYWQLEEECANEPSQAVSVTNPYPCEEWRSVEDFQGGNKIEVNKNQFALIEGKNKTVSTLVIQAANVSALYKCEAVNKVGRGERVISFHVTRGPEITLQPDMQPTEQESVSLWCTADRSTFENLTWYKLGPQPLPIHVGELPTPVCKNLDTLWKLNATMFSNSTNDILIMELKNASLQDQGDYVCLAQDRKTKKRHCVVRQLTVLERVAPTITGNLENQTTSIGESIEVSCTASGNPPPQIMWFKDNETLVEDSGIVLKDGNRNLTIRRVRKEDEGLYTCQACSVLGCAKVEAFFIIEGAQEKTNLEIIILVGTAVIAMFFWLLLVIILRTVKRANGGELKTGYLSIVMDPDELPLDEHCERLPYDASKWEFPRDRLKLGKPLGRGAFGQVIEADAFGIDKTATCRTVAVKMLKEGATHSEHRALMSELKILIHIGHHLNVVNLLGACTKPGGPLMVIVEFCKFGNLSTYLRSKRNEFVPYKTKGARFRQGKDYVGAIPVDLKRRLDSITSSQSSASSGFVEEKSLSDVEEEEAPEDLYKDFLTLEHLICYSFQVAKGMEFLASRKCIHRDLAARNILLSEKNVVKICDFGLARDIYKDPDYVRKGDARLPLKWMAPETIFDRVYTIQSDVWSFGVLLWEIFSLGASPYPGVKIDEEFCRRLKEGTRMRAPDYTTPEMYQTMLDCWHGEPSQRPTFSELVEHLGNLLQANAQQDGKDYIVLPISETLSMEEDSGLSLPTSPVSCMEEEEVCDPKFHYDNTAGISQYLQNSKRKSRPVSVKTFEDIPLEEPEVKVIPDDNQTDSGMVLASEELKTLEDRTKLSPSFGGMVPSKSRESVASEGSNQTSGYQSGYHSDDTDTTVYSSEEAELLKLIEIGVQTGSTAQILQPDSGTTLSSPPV
Test [15] concerns the target Mitogen-activated protein kinase kinase kinase kinase 4 (Homo sapiens, UniProt O95819). The class given is functional.
The target of another test is Aurora kinase A (Homo sapiens, UniProt O14965). The class given is functional.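 Further: value from the Navigating the Kinome kinase panel profiling, panel entry STK6.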
Test [16] addresses Leucine-rich repeat serine/threonine-protein kinase 2 (Homo sapiens, UniProt Q5S007). It counts as functional.
Test [17] concerns the target Protein kinase C theta type (Homo sapiens, UniProt Q04759). Nature of the test: Navigating the Kinome. Panel member name: PRKCQ. The class given is functional.
For test [18], the target named is cAMP-dependent protein kinase catalytic subunit alpha (Homo sapiens, UniProt P17612). The class given is functional.
In test [19] the target is Macrophage colony-stimulating factor 1 receptor (Homo sapiens, UniProt P07333). The class given is functional.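 Further: value comes from the Navigating the Kinome screening panel, CSF1R member.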
For test [20], the target named is Dual specificity protein kinase CLK4 (Homo sapiens, UniProt Q9HAZ1). It counts as functional.
Test [21] deals with T1, Insulin-degrading enzyme (Homo sapiens, UniProt P14735). Nature of the test: recombinant IDE activation, cell-free – biochemical, fluorescence polarization, counter-screen for IDE activator project, dose response (AID 588681). On the technique in general: Polarisation of emitted light reports the rotation of a fluorescent probe.
T1 sequence (P14735 whole entry): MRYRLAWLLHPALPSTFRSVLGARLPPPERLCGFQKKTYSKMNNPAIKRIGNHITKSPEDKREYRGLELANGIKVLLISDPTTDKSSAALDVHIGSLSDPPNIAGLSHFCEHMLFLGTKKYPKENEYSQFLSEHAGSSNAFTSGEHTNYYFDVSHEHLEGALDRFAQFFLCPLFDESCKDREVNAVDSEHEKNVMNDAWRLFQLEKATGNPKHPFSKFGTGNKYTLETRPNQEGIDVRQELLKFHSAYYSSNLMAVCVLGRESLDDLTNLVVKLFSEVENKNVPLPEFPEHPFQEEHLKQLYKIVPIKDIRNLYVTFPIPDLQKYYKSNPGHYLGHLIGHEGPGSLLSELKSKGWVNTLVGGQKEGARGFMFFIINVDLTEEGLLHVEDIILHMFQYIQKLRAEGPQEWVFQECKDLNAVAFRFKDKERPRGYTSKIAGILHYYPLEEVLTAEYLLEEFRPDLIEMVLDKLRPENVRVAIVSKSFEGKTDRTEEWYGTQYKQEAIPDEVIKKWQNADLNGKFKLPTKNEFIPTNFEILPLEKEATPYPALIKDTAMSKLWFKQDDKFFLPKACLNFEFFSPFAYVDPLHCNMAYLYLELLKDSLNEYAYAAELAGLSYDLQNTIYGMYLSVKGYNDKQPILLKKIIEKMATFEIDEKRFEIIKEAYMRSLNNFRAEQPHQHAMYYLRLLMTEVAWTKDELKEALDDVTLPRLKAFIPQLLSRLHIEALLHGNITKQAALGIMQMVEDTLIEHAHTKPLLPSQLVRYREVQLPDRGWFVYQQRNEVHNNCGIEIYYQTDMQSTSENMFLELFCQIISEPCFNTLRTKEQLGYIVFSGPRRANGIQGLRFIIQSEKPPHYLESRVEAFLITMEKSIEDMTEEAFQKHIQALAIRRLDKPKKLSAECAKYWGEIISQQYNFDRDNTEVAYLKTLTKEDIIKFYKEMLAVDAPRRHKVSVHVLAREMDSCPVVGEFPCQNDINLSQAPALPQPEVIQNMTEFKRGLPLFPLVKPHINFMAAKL
Test [22] deals with T1, Insulin-degrading enzyme. Nature of the test: cellular IDE activation of Abeta substrate cleavage – fluorescence polarization, HEK cells, dose response (AID 588439). The class given is functional, cell-based.
Test [23] has as its system HEK293. Description: membrane integrity loss in HEK cells – cell-based, fluorescence, cytotoxicity control for IDE activator project, dose response (AID 588440).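 Further: cytotoxicity by LDH release measuring loss of membrane integrity.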 It counts as functional. The conditions noted are these: Homo sapiens.
The test system of test [24] is HEK293. Nature of the test: optical interference in Abeta FP readout, dose response, artefact control for IDE activator project, biochemical, fluorescence polarization (AID 588442). It counts as functional, cell-based. The conditions noted are these: Homo sapiens.
The target in test [25] is T2, Heat shock factor protein 1 (Mus musculus, UniProt P38532).
T2 sequence (P38532 whole entry): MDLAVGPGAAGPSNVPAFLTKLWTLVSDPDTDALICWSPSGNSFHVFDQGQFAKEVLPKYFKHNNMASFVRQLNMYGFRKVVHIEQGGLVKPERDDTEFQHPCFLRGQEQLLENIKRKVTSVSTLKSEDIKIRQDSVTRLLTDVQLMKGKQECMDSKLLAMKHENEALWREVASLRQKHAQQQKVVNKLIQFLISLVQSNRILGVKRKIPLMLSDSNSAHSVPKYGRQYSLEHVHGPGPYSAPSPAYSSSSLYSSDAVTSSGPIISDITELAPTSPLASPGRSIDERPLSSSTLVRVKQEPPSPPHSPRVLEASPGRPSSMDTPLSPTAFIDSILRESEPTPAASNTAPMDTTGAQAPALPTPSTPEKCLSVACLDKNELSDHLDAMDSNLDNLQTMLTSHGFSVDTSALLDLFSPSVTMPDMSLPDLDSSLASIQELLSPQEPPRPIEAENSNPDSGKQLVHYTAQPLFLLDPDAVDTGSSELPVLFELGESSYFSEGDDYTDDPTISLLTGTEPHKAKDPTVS
Nature of the test: decrease of HSF1-responsive luciferase luminescence – cell-based, NIH3T3, dose retest, confirmation (AID 2382).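 Further: NIH3T3 fibroblasts with HSF1-driven luciferase reporter stressed by proteasome inhibitor MG132; luminescence from HSF1-driven luciferase expression after 8 hours of MG132 stress.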 The class given is functional.

For a further test, the target named is Paired box protein Pax-8 (Homo sapiens, UniProt Q06710). Description: PAX8 transcriptional activity inhibition in RMG-I – RMG-I cells, luciferase, cherry-pick, dose response (AID 687027).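 Further: luciferase reporter driven by Pax8 target thyroperoxidase promoter measured by SteadyGlo luminescence.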 It counts as functional, cell-based.
Sequence of Paired box protein Pax-8 (Q06710 whole entry): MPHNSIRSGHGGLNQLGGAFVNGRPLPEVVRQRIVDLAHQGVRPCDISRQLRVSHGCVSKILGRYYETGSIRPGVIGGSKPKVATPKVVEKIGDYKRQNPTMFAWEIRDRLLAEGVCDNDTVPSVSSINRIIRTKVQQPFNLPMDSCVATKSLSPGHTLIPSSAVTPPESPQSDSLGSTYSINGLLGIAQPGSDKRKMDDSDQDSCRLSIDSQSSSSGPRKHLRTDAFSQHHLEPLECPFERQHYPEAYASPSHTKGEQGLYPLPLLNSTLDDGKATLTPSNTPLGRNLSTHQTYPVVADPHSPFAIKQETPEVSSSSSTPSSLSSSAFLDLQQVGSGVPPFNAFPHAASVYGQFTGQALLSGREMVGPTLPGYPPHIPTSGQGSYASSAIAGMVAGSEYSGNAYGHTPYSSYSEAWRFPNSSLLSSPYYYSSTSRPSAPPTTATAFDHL
Test [26] has as its target T3, Replicative DNA helicase DnaB (Mycobacterium tuberculosis, UniProt P9WMR3).
T3 sequence (P9WMR3 whole entry): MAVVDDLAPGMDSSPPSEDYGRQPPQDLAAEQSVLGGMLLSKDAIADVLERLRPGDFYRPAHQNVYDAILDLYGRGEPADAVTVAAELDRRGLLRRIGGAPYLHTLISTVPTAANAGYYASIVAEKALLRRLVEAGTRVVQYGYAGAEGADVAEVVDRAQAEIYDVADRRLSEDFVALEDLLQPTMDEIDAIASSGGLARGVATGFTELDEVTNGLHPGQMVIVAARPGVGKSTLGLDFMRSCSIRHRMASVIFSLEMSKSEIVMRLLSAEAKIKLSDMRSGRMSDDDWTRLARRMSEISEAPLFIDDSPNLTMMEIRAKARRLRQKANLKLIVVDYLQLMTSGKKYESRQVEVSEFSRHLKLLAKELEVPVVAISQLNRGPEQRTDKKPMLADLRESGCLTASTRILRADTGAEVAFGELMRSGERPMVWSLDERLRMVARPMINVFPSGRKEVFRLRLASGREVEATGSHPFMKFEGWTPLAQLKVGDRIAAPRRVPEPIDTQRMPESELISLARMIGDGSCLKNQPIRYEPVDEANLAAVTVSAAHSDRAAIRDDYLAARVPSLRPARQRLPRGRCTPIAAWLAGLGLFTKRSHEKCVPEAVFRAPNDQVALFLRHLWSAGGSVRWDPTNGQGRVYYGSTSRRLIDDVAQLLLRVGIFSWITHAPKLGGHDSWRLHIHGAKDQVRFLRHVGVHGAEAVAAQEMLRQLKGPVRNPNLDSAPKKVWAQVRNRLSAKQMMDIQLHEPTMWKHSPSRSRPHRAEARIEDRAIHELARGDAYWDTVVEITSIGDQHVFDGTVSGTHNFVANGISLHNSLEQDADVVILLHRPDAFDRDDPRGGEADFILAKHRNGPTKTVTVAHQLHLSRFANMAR
Nature of the test: DnaB intein splicing inhibitors, dose response, biochemical, cell-free fluorescence (AID 449749). The class given is functional.

The target in another test is T4, Protein RecA (Mycobacterium tuberculosis, UniProt P9WHJ3).
T4 sequence (P9WHJ3 whole entry): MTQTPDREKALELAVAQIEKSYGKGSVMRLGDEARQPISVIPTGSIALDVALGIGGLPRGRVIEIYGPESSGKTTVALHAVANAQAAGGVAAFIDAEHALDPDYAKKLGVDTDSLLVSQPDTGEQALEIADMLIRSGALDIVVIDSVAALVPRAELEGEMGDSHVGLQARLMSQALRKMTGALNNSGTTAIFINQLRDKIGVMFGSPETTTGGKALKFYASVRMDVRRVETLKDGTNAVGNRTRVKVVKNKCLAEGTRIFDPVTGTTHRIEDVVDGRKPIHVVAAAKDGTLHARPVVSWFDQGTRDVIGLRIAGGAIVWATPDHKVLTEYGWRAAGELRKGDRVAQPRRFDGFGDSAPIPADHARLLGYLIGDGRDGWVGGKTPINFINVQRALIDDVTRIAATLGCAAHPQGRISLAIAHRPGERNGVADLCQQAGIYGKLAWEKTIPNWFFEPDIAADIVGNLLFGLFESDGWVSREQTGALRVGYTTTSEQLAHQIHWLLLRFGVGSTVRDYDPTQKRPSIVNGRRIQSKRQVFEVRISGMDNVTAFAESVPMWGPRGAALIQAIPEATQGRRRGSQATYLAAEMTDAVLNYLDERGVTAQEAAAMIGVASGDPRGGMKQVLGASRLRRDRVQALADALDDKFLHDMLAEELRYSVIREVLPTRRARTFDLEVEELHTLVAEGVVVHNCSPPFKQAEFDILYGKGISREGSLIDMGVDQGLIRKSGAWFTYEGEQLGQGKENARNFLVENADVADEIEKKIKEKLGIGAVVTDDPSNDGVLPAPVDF
Description: Fluorescence Cell-Free Homogeneous Dose Retest to Identify Inhibitors of RecA-Intein Splicing Activity. [Related pubchem assays (depositor defined):AID2097, AID2223, AID489010, AID492950]. It counts as functional.

The next test deals with CHO. Description: CHO cell viability loss, potency – luminescence, cytotoxicity control for TLR9-MyD88 binding inhibitor project, dose response (AID 588339).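 Further: CHO cells stably coexpressing TLR9 and MyD88 fusions from primary screen; compound exposure lasted 48 hours before viability readout.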 It counts as functional, cell-based, hamster. The conditions noted are these: Cricetulus griseus.
For another test, the target named is Beta Lactamase (Pseudomonas aeruginosa, UniProt Q932Y6). Description: BLA reporter interference, concentration series – BLA reporter cells, FRET fluorescence, artefact control for TLR9-MyD88 binding inhibitor project, dose response (AID 588341).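 Further: cell based assay in CHO-K1 cells stably expressing beta-lactamase.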 It counts as cell-based.
A short description of test [27]: NIH3T3 cell viability loss – ATP luminescence, mouse fibroblasts, counter-screen, dose response (AID 2010).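 Further: cells exposed to compound for about 90 hours before reading.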 The class given is functional, cell-based. Background: Counterscreens check selectivity or assay interference.
The nature of test [28]: Trypanosoma cruzi growth suppression in host cells – NIH3T3 host cells, beta-gal luminescence, confirmation (AID 2044).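 Further: intracellular parasites grown in NIH/3T3 mouse fibroblasts as host cells; luminescent beta-galactosidase reporter signal from transgenic T. cruzi replicating inside host cells; inhibitors lower the luminescence signal.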 The class given is functional, cell-based.

Sequence of Cyclin-dependent kinase 9 (P50750 whole entry): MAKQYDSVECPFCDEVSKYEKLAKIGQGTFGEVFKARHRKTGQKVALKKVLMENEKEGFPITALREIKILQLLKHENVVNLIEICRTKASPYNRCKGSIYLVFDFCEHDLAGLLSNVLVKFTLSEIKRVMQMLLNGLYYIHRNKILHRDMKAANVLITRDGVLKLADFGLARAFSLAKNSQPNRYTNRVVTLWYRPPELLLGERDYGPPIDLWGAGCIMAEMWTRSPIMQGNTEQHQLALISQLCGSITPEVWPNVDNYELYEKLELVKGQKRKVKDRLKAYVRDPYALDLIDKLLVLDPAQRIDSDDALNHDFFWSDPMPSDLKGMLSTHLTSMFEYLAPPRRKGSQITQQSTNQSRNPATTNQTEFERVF
Sequence of Casein kinase I isoform delta (P48730 whole entry, canonical isoform): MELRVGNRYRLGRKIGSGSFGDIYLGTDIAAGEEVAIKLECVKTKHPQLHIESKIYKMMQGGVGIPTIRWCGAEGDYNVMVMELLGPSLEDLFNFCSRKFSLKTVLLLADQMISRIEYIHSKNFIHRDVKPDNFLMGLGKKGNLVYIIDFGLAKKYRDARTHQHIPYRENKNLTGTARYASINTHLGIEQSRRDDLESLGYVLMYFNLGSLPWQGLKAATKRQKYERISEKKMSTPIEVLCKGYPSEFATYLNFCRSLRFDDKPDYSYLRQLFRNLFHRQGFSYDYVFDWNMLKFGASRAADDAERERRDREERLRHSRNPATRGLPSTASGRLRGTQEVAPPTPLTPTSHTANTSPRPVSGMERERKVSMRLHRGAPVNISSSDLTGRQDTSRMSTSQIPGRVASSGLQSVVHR

As for `CN1CCN(Cc2ccc3c(c2)-c2n[nH]c(=O)c4cccc(c24)O3)CC1`, the Ki (commonly the dissociation constant of the complex between target and ligand, obtained from inhibition or displacement) in test [1] is 3.16 µM (active); in test [2], 5.01 µM (active).
Turning to `COC1/C=C/C=C(\C)Cc2cc(O)c(Cl)c(c2)N(C)C(=O)CC(OC(=O)C(C)C)C2(C)OC2C(C)C2CC1(O)NC(=O)O2` (centres undefined), the EC50 with HEK293 [3] and in the test with HEK293 [4] was > 59.7 µM (inactive) throughout. Also, the CC50 – broadly, the concentration giving 50% cytotoxicity – in the test with Vero is < 0.05 µM (active). Further, in test [5], the half-maximal activity concentration (AC50) (as a rule, the concentration giving half of the maximal activity seen) is 9.59 µM (active).
`COc1ccc2c(Cl)c(-c3nnc(SCC(=O)c4ccc(F)cc4)n3C)sc2c1`: the IC50 in test [6] and in [7] was > 99 µM (inactive) each time.
On to `C(=Cc1ccc2nccn2n1)c1ccccc1`, for which the Ki in test [8] was > 63.1 µM (inactive); in test [9], > 79.4 µM (inactive); in test [10] it was 12.6 µM (active); in [11], 100 µM (active); in test [12], > 79.4 µM (inactive); in [13] it was > 100 µM (inactive). The Ki in test [14] is > 100 µM (inactive); in [15], 7.94 µM (active); at Aurora kinase A, > 63.1 µM (inactive); in [16], 3.98 µM (active); in test [17] it was > 100 µM (inactive); in test [18] it was 5.01 µM (active). Moreover, the Ki is > 100 µM (inactive) in test [19] and 3.98 µM (active) in test [20].
Take `CCCCCc1nnc(NC(=O)C2CCCO2)s1` (centres undefined): the EC50 at Insulin-degrading enzyme [21], at Insulin-degrading enzyme [22] and with HEK293 [24] was > 54.7 µM (inactive) throughout. The IC50 with HEK293 [23] was > 89.1 µM (inactive).
In the case of `Cn1c(=O)c([N+](=O)[O-])c(Cl)c2ccccc21`, the EC50 – broadly, the concentration that produces a half-maximal response – in [25] was 4.3 µM (active); on Protein RecA it was 4.25 µM (active); in test [27], 3.97 µM (active); in test [28], 1.87 µM (active). Further, the AC50 at Paired box protein Pax-8 is 6.65 µM (active); in test [26], 5.18 µM (active). Also, the IC50 is 1.18 µM (active) with CHO and 17.8 µM (inactive) on Beta Lactamase.
